# Assay results reported in patent US9351974B2, “Substituted pteridinones for the treatment of cancer” (OSI Pharmaceuticals, LLC, priority 2011, dated 2016).
# Target: T1, His-tagged full-length RSK2 (RPS6KA3) (Homo sapiens, UniProt P51812)
# T1 construct: His-tagged full-length RSK2 (RPS6KA3, Invitrogen PV3323); His; purchased Invitrogen PV3323
# Experiment: RSK2 Omnia Assay for compound IC50 determination
# Format: biochemical
# Details: ATP 15 μM, n=2, read-out: Mean RSK2 Biochem IC50
# Summary of the method: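 Initial-rate slopes from continuous kinetic reads were fitted to a four-parameter equation for IC50 (n=2). Ki was then derived by Cheng-Prusoff assuming ATP-competitive inhibition. Reactions contained 15 μM ATP (Km 16.3 μM), 5 μM Omnia ST Peptide 6, and […] in 50 mM HEPES pH 7.5, 10 mM MgCl2, 1 mM DTT, 1% DMSO. Compounds spanned 11 threefold steps, […] final.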
# T1 sequence (P51812 whole entry): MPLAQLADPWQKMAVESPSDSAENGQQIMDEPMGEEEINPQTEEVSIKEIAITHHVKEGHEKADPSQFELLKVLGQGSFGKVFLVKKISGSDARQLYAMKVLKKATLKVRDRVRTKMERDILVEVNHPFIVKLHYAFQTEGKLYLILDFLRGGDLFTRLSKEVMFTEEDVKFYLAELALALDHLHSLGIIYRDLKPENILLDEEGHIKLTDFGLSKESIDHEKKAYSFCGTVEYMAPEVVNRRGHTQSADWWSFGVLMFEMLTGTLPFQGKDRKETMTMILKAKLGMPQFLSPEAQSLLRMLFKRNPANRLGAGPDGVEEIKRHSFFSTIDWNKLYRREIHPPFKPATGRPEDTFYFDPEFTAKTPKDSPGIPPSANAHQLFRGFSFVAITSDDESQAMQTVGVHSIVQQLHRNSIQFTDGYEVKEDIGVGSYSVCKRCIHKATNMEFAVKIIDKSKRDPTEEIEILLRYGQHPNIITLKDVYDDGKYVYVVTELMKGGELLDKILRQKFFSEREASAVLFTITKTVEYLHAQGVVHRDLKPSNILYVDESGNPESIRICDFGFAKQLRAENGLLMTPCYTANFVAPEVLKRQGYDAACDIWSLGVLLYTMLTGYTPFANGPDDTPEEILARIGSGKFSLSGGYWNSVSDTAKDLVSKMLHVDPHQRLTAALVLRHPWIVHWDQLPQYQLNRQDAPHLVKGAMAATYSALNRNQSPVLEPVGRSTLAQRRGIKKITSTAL
row,Compound,IC50
1,"C[C@@H]1C(=O)N(c2ccn(C)c(=O)c2)c2cnc(Nc3cc(F)c4[nH]ncc4c3)nc2N1C1CCCCC1 [compound 176, (7R)-8-cyclohexyl-2-[(7-fluoro-1H-indazol-5-yl)amino]-7-methyl-5-(1-methyl-2-oxo-1,2-dihydropyridin-4-yl)-7,8-dihydropteridin-6(5H)-one]",≤ 0.1 µM
2,"N#Cc1cccc(N2C(=O)[C@@H](CO)N(C3CCCC3)c3nc(Nc4ccc5[nH]ncc5c4)ncc32)c1 [Example 220, 3-[(7R)-8-cyclopentyl-7-(hydroxymethyl)-2-(1H-indazol-5-ylamino)-6-oxo-7,8-dihydropteridin-5(6H)-yl]benzonitrile]",≤ 0.1 µM
3,"C[C@@H]1C(=O)N(c2ccc(N3CCCC3)nc2)c2cnc(Nc3cc(F)c4[nH]ncc4c3)nc2N1C1CCCCC1 [compound 141, (7R)-8-cyclohexyl-2-[(7-fluoro-1H-indazol-5-yl)amino]-7-methyl-5-[6-(pyrrolidin-1-yl)pyridin-3-yl]-7,8-dihydropteridin-6(5H)-one]",≤ 0.1 µM
4,"C[C@@H]1C(=O)N(c2cccc(C#N)c2)c2cnc(Nc3cnc4[nH]ncc4c3)nc2N1C1CCCCC1 [compound 152, 3-[(7R)-8-cyclohexyl-7-methyl-6-oxo-2-(1H-pyrazolo[3,4-b]pyridin-5-ylamino)-7,8-dihydropteridin-5(6H)-yl]benzonitrile]",≤ 0.1 µM
5,"COC(=O)c1ccc(N2C(=O)[C@@H](C)N(C3CCCCC3)c3nc(Nc4ccc5[nH]ncc5c4)ncc32)cc1 [Example 52, methyl 4-[(7R)-8-cyclohexyl-2-(1H-indazol-5-ylamino)-7-methyl-6-oxo-7,8-dihydropteridin-5(6H)-yl]benzoate]",≤ 0.1 µM
6,"C[C@@H]1C(=O)N(c2cccc(C#N)c2)c2cnc(Nc3ccc(C(=O)O)c(F)c3)nc2N1C1CCC(F)(F)CC1 [compound 271, 4-{[(7R)-5-(3-cyanophenyl)-8-(4,4-difluorocyclohexyl)-7-methyl-6-oxo-5,6,7,8-tetrahydropteridin-2-yl]amino}-2-fluorobenzoic acid]",≤ 0.1 µM
7,"COc1ccc(N2C(=O)[C@@H](C)N(C3CCCCC3)c3nc(Nc4ccc5[nH]ncc5c4)ncc32)cc1C#N [compound 104, 5-[(7R)-8-cyclohexyl-2-(1H-indazol-5-ylamino)-7-methyl-6-oxo-7,8-dihydropteridin-5(6H)-yl]-2-methoxybenzonitrile]",≤ 0.1 µM
8,"C[C@@H]1C(=O)N(c2ccccc2)c2cnc(Nc3ccc4[nH]ncc4c3)nc2N1CC1CCOCC1 [Example 74, (7R)-2-(1H-indazol-5-ylamino)-7-methyl-5-phenyl-8-(tetrahydro-2H-pyran-4-ylmethyl)-7,8-dihydropteridin-6(5H)-one]",≤ 0.1 µM
9,"C[C@@H]1C(=O)N(c2cccc(C#N)c2)c2cnc(Nc3ccc(C(=O)O)cc3)nc2N1C1CCCCC1 [compound 155, 4-{[(7R)-5-(3-cyanophenyl)-8-cyclohexyl-7-methyl-6-oxo-5,6,7,8-tetrahydropteridin-2-yl]amino}benzoic acid]",≤ 0.1 µM
10,"C[C@@H]1C(=O)N(c2cccc(C#N)c2)c2cnc(Nc3ccc4[nH]ncc4c3)nc2N1CC1CCOC1 (stereo partly drawn) [Example 82, 3-[(7R)-2-(1H-indazol-5-ylamino)-7-methyl-6-oxo-8-(tetrahydrofuran-3-ylmethyl)-7,8-dihydropteridin-5(6H)-yl]benzonitrile]",≤ 0.1 µM
11,"C[C@@H]1C(=O)N(c2cccc(C(F)(F)F)c2)c2cnc(Nc3ccc4[nH]ncc4c3)nc2N1C1CCCCC1 [Example 36, (7R)-8-cyclohexyl-2-(1H-indazol-5-ylamino)-7-methyl-5-[3-(trifluoromethyl)phenyl]-7,8-dihydropteridin-6(5H)-one]",≤ 0.1 µM
12,"C[C@@H]1C(=O)N(c2ccccc2)c2cnc(Nc3ccc4c(c3)CC(=O)N4)nc2N1C1CCCC1 [Example 68, (7R)-8-cyclopentyl-7-methyl-2-[(2-oxo-2,3-dihydro-1H-indol-5-yl)amino]-5-phenyl-7,8-dihydropteridin-6(5H)-one]",≤ 0.1 µM

# Further lines, results first:
row,IC50,Compound
1,≤ 0.1 µM,"C[C@@H]1C(=O)N(c2cccnc2)c2cnc(Nc3cc(F)c4[nH]ncc4c3)nc2N1C1CCC(F)(F)CC1 [compound 264, (7R)-8-(4,4-difluorocyclohexyl)-2-[(7-fluoro-1H-indazol-5-yl)amino]-7-methyl-5-(pyridin-3-yl)-7,8-dihydropteridin-6(5H)-one]"
2,≤ 0.1 µM,"CO[C@H]1CC[C@H](N2c3nc(Nc4cc(F)c5[nH]ncc5c4)ncc3N(c3ccc(N4CCN(C)CC4)nc3)C(=O)[C@H]2C)CC1 [compound 233, (7R)-2-[(7-fluoro-1H-indazol-5-yl)amino]-8-(trans-4-methoxycyclohexyl)-7-methyl-5-[6-(4-methylpiperazin-1-yl)pyridin-3-yl]-7,8-dihydropteridin-6(5H)-one]"
3,≤ 0.1 µM,"COc1ccc(N2C(=O)[C@@H](C)N(CCC(C)C)c3nc(Nc4cc(F)c5[nH]ncc5c4)ncc32)cc1OC [Example 85, (7R)-5-(3,4-dimethoxyphenyl)-2-[(7-fluoro-1H-indazol-5-yl)amino]-7-methyl-8-(3-methylbutyl)-7,8-dihydropteridin-6(5H)-one]"
4,≤ 0.1 µM,"CC(C)CCN1c2nc(Nc3ccc4[nH]ncc4c3)ncc2N(c2ccccc2)C(=O)C1C (stereo not shown) [Example 1, 2-(1H-indazol-5-ylamino)-7-methyl-8-(3-methylbutyl)-5-phenyl-7,8-dihydropteridin-6(5H)-one]"
5,≤ 0.1 µM,"COc1ccc(N2C(=O)[C@@H](C)N(C3CCCCC3)c3nc(Nc4cnc5[nH]ncc5c4)ncc32)cc1OC [compound 153, (7R)-8-cyclohexyl-5-(3,4-dimethoxyphenyl)-7-methyl-2-(1H-pyrazolo[3,4-B]pyridin-5-ylamino)-7,8-dihydropteridin-6(5H)-one]"
6,≤ 0.1 µM,"COc1ccc(N2C(=O)[C@@H](C)N(CCC(C)C)c3nc(Nc4cc(F)c5[nH]ncc5c4)ncc32)cc1C#N [Example 91, 5-[(7R)-2-[(7-fluoro-1H-indazol-5-yl)amino]-7-methyl-8-(3-methylbutyl)-6-oxo-7,8-dihydropteridin-5(6H)-yl]-2-methoxybenzonitrile]"
7,≤ 0.1 µM,"C[C@@H]1C(=O)N(c2cccc(C#N)c2)c2cnc(Nc3ccc4[nH]c(=O)sc4c3)nc2N1C1CCC(F)(F)CC1 [compound 267, 3-[(7R)-8-(4,4-difluorocyclohexyl)-7-methyl-6-oxo-2-[(2-oxo-2,3-dihydro-1,3-benzothiazol-6-yl)amino]-7,8-dihydropteridin-5(6H)-yl]benzonitrile]"
8,≤ 0.1 µM,"C[C@@H]1C(=O)N(c2cnn(C)c2)c2cnc(Nc3ccc4[nH]ncc4c3)nc2N1C1CCCCC1 [Example 58, (7R)-8-cyclohexyl-2-(1H-indazol-5-ylamino)-7-methyl-5-(1-methyl-1H-pyrazol-4-yl)-7,8-dihydropteridin-6(5H)-one]"
9,> 1 µM,"C[C@@H]1C(=O)N(c2cccc(C#N)c2)c2cnc(Nc3ccc4[nH]ncc4c3Cl)nc2N1C1CCCCC1 [compound 101, 3-[(7R)-2-[(4-chloro-1H-indazol-5-yl)amino]-8-cyclohexyl-7-methyl-6-oxo-7,8-dihydropteridin-5(6H)-yl]benzonitrile]"
10,≤ 0.1 µM,"COc1ccc(N2C(=O)[C@@H](C)N(C3CCCCC3)c3nc(Nc4ccc(C(=O)O)cc4)ncc32)cc1OC [compound 148, 4-{[(7R)-8-cyclohexyl-5-(3,4-dimethoxyphenyl)-7-methyl-6-oxo-5,6,7,8-tetrahydropteridin-2-yl]amino}benzoic acid]"
